Laboratory results: the NIST ThermoML archive (doi:10.1016/j.jct.2008.10.002)

Experiments:
[1] = excess molar enthalpy (molar enthalpy of mixing); xn = mol fraction of the nth substance listed; conditions: 303.15 K, 101.3 kPa, Liquid
[2] = xn = mol fraction of the nth substance listed; conditions: 101.3 kPa, Liquid, Vibrating tube method
[3] = molar heat capacity at constant pressure; xn = mol fraction of the nth substance listed; conditions: 101.3 kPa, Liquid, Small sample (50 mg) DSC

CCOS(=O)(=O)[O-].CCn1cc[n+](C)c1 [1-ethyl-3-methylimidazolium ethyl sulfate] + O
[1]
Conditions | excess molar enthalpy [kcal/mol]
x1 = 0.0504 | -0.115
x1 = 0.0997 | -0.183
x1 = 0.1468 | -0.219
x1 = 0.2004 | -0.236
x1 = 0.2921 | -0.231
x1 = 0.3935 | -0.204
x1 = 0.4806 | -0.19
x1 = 0.5727 | -0.157
x1 = 0.6687 | -0.124
x1 = 0.8212 | -0.0681

Conditions | mass density, [2] [kg/m3] | molar heat capacity at constant pressure, [3] [J/K/mol]
293.15 K, x1 = 0.0477 | 1084.8 | 92.6
293.15 K, x1 = 0.1033 | 1138.7 | 109.8
293.15 K, x1 = 0.2048 | 1184.3 | 140.4
293.15 K, x1 = 0.2943 | 1203.3 | 167.1
293.15 K, x1 = 0.3847 | 1214.7 | 194.3
293.15 K, x1 = 0.4774 | 1222.5 | 222.7
293.15 K, x1 = 0.5797 | 1228.5 | 254.6
293.15 K, x1 = 0.6632 | 1232 | 281.3
293.15 K, x1 = 0.8092 | 1236.6 | 328.9
293.15 K, x1 = 0.907 | 1238.9 | 360.9
298.15 K, x1 = 0.0477 | 1082.3 | 92.9
298.15 K, x1 = 0.1033 | 1135.4 | 110.5
298.15 K, x1 = 0.2048 | 1180.8 | 141.4
298.15 K, x1 = 0.2943 | 1199.8 | 168.3
298.15 K, x1 = 0.3847 | 1211.3 | 195.7
298.15 K, x1 = 0.4774 | 1219.1 | 224.2
298.15 K, x1 = 0.5797 | 1225 | 256.2
298.15 K, x1 = 0.6632 | 1228.6 | 283.1
298.15 K, x1 = 0.8092 | 1233.2 | 330.9
298.15 K, x1 = 0.907 | 1235.5 | 363.1
303.15 K, x1 = 0.0477 | 1079.6 | 93.3
303.15 K, x1 = 0.1033 | 1132.1 | 111.2
303.15 K, x1 = 0.2048 | 1177.2 | 142.6
303.15 K, x1 = 0.2943 | 1196.3 | 169.7
303.15 K, x1 = 0.3847 | 1207.8 | 197.1
303.15 K, x1 = 0.4774 | 1215.6 | 225.8
303.15 K, x1 = 0.5797 | 1221.6 | 258
303.15 K, x1 = 0.6632 | 1225.2 | 285
303.15 K, x1 = 0.8092 | 1229.8 | 333
303.15 K, x1 = 0.907 | 1232.1 | 365.3
308.15 K, x1 = 0.0477 | 1076.9 | 93.6
308.15 K, x1 = 0.1033 | 1128.7 | 111.9
308.15 K, x1 = 0.2048 | 1173.6 | 143.7
308.15 K, x1 = 0.2943 | 1192.7 | 171
308.15 K, x1 = 0.3847 | 1204.3 | 198.6
308.15 K, x1 = 0.4774 | 1212.2 | 227.5
308.15 K, x1 = 0.5797 | 1218.2 | 259.9
308.15 K, x1 = 0.6632 | 1221.8 | 287.1
308.15 K, x1 = 0.8092 | 1226.4 | 335.3
308.15 K, x1 = 0.907 | 1228.7 | 367.7
313.15 K, x1 = 0.0477 | 1073.9 | 93.9
313.15 K, x1 = 0.1033 | 1125.3 | 112.7
313.15 K, x1 = 0.2048 | 1170 | 144.9
313.15 K, x1 = 0.2943 | 1189.2 | 172.4
313.15 K, x1 = 0.3847 | 1200.8 | 200.3
313.15 K, x1 = 0.4774 | 1208.7 | 229.3
313.15 K, x1 = 0.5797 | 1214.8 | 261.8
313.15 K, x1 = 0.6632 | 1218.4 | 289.2
313.15 K, x1 = 0.8092 | 1223 | 337.7
313.15 K, x1 = 0.907 | 1225.3 | 370.3
318.15 K, x1 = 0.0477 | 1071 | 94.4
318.15 K, x1 = 0.1033 | 1121.8 | 113.6
318.15 K, x1 = 0.2048 | 1166.4 | 146.2
318.15 K, x1 = 0.2943 | 1185.6 | 173.9
318.15 K, x1 = 0.3847 | 1197.3 | 202
318.15 K, x1 = 0.4774 | 1205.3 | 231.2
318.15 K, x1 = 0.5797 | 1211.3 | 263.9
318.15 K, x1 = 0.6632 | 1215 | 291.6
318.15 K, x1 = 0.8092 | 1219.6 | 340.3
318.15 K, x1 = 0.907 | 1221.9 | 373

CCn1cc[n+](C)c1.O=S(=O)([O-])C(F)(F)F [1-ethyl-3-methylimidazolium trifluoromethanesulfonate] + O
[1]
Conditions | excess molar enthalpy [kcal/mol]
x1 = 0.1012 | 0.116
x1 = 0.1943 | 0.19
x1 = 0.2959 | 0.237
x1 = 0.4031 | 0.256
x1 = 0.4921 | 0.253
x1 = 0.5929 | 0.23
x1 = 0.6997 | 0.182
x1 = 0.7805 | 0.144
x1 = 0.844 | 0.107

Conditions | mass density, [2] [kg/m3] | molar heat capacity at constant pressure, [3] [J/K/mol]
293.15 K, x1 = 0.0186 | 1063.6 | 83.2
293.15 K, x1 = 0.0522 | 1142.6 | 94.2
293.15 K, x1 = 0.0995 | 1208.9 | 108.1
293.15 K, x1 = 0.2037 | 1282.4 | 138
293.15 K, x1 = 0.2952 | 1315.7 | 163.5
293.15 K, x1 = 0.3868 | 1336.6 | 188.5
293.15 K, x1 = 0.4761 | 1350.7 | 213.2
293.15 K, x1 = 0.5771 | 1362.4 | 240.9
293.15 K, x1 = 0.6617 | 1370 | 264
293.15 K, x1 = 0.8398 | 1381.8 | 314.4
293.15 K, x1 = 0.8646 | 1383.1 | 321.6
298.15 K, x1 = 0.0186 | 1061.7 | 83.1
298.15 K, x1 = 0.0522 | 1139.6 | 94.3
298.15 K, x1 = 0.0995 | 1205.3 | 108.6
298.15 K, x1 = 0.2037 | 1278.3 | 138.9
298.15 K, x1 = 0.2952 | 1311.5 | 164.5
298.15 K, x1 = 0.3868 | 1332.4 | 189.7
298.15 K, x1 = 0.4761 | 1346.4 | 214.5
298.15 K, x1 = 0.5771 | 1358.1 | 242.3
298.15 K, x1 = 0.6617 | 1365.7 | 265.6
298.15 K, x1 = 0.8398 | 1377.5 | 316.3
298.15 K, x1 = 0.8646 | 1378.8 | 323.5
303.15 K, x1 = 0.0186 | 1059.5 | 83.2
303.15 K, x1 = 0.0522 | 1136.5 | 94.6
303.15 K, x1 = 0.0995 | 1201.6 | 109.2
303.15 K, x1 = 0.2037 | 1274.2 | 139.9
303.15 K, x1 = 0.2952 | 1307.2 | 165.6
303.15 K, x1 = 0.3868 | 1328.1 | 190.9
303.15 K, x1 = 0.4761 | 1342.2 | 215.8
303.15 K, x1 = 0.5771 | 1353.9 | 243.8
303.15 K, x1 = 0.6617 | 1361.5 | 267.3
303.15 K, x1 = 0.8398 | 1373.3 | 318.2
303.15 K, x1 = 0.8646 | 1374.6 | 325.5
308.15 K, x1 = 0.0186 | 1057.2 | 83.1
308.15 K, x1 = 0.0522 | 1133.3 | 94.7
308.15 K, x1 = 0.0995 | 1197.8 | 109.6
308.15 K, x1 = 0.2037 | 1270 | 140.7
308.15 K, x1 = 0.2952 | 1303 | 166.6
308.15 K, x1 = 0.3868 | 1323.9 | 192.1
308.15 K, x1 = 0.4761 | 1337.9 | 217.1
308.15 K, x1 = 0.5771 | 1349.7 | 245.3
308.15 K, x1 = 0.6617 | 1357.3 | 269
308.15 K, x1 = 0.8398 | 1369.1 | 320.2
308.15 K, x1 = 0.8646 | 1370.4 | 327.5
313.15 K, x1 = 0.0186 | 1054.7 | 83.2
313.15 K, x1 = 0.0522 | 1130 | 95
313.15 K, x1 = 0.0995 | 1193.9 | 110.1
313.15 K, x1 = 0.2037 | 1265.8 | 141.5
313.15 K, x1 = 0.2952 | 1298.7 | 167.7
313.15 K, x1 = 0.3868 | 1319.6 | 193.3
313.15 K, x1 = 0.4761 | 1333.7 | 218.5
313.15 K, x1 = 0.5771 | 1345.4 | 246.9
313.15 K, x1 = 0.6617 | 1353.1 | 270.8
313.15 K, x1 = 0.8398 | 1364.9 | 322.1
313.15 K, x1 = 0.8646 | 1366.3 | 329.6
318.15 K, x1 = 0.0186 | 1052.1 | 83.4
318.15 K, x1 = 0.0522 | 1126.7 | 95.4
318.15 K, x1 = 0.0995 | 1190.1 | 110.6
318.15 K, x1 = 0.2037 | 1261.6 | 142.4
318.15 K, x1 = 0.2952 | 1294.4 | 168.8
318.15 K, x1 = 0.3868 | 1315.3 | 194.6
318.15 K, x1 = 0.4761 | 1329.4 | 220
318.15 K, x1 = 0.5771 | 1341.2 | 248.5
318.15 K, x1 = 0.6617 | 1348.9 | 272.6
318.15 K, x1 = 0.8398 | 1360.8 | 324.2
318.15 K, x1 = 0.8646 | 1362.1 | 331.7
